Assay results as given in patent US5070210A, “Novel ketenimines as intermediates for insecticides” (ICI Americas Inc., priority 1990, dated 1991).

Columns and labels:
Assay type in all cases: in vivo
[1] = test system: Housefly [Musca domestica]; assay: Housefly insecticidal test; settings: μg per 25 female flies; mortality after 48 hours
In short: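 LC50 (μg compound per 25 female flies) derives from dosage-mortality curves of 48 h kill. Flies, females 1-2 days old, were held 25 per cage over a dish coated with dried acetone deposit, starting at 100 μg per cage and descending.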

[2] = test system: Cabbage Looper [Trichoplusia ni (Hubner)]; assay: Cabbage looper insecticidal test; settings: second-instar larvae, percent in solution; 3-5 days
In short: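 LC50, as percent test compound in solution, derived from dosage-mortality curves; concentrations started at 0.1% and went lower. Five second-instar larvae per dish fed on acetone-water-dipped, dried squash cotyledons in a humid chamber. Deaths recorded 3-5 days post-infestation.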

[3] = test system: Aster Leafhopper [Macrosteles fascifrens (Stal)]; assay: Aster leafhopper insecticidal test; settings: adults/nymphs, percent in solution; 48 hours
In short: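 LC50 values, given as percent of test compound in the dip solution, were derived from dosage-mortality curves over concentrations from 0.05% downward. Mortality was counted 48 hours after ten leafhopper adults/nymphs were enclosed on treated seedlings. The seedlings were oats, about 10 cm tall, briefly dipped in 50-50 acetone-water.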

[4] = test system: Beet Armyworm (Spodoptera exigua); assay: Beet armyworm insecticidal test; settings: second-instar larvae, percent in solution; five days
Method: The compounds in Tables 1 and 2 above were tested for insecticidal activity using the following testing procedures. LC50 values, based on the results of these tests and calculated according to dosage-mortality curves, are expressed in Table 3.
Beet Armyworm (Spodoptera exigua):
Test compounds were diluted in a 50-50 acetone-water solution. Young leaves of sugar beets (Beta vulgaris) were immersed in the test solutions for 2-3 seconds and placed on a wire screen to dry. The dried leaves were placed in petri dishes containing a moistened filter paper and infested with five second-instar beet armyworm larvae. The dishes were placed in a high humidity chamber. Mortality of the larvae was recorded five days later. Test concentrations ranged from 0.1% downward. The LC-50 values are expressed below in Table 3 under the heading "BAW" in terms of percent of the test compound in solution.

[5] = test system: Maize weevil [Sitophilus Zeamais (Motschulsky)]; assay: Maize weevil insecticidal test; settings: adult weevils, percent in solution; 48 hours
In short: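 LC50, in percent of compound in solution, was derived from dosage-mortality curves after 48 h at about 25 °C. Ten adult weevils per container fed on four corn seeds briefly immersed in acetone:water (50:50) solutions of up to 0.01% and dried.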

[6] = test system: Tobacco Budworm [Heliothis virescens (Fabricius)] larvae; assay: Tobacco budworm contact test; settings: second-instar larvae, percent in solution, 5 days
In short: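 Cotton cotyledons dipped 2–3 s in compound in 50-50 acetone-water, dried, then infested with 5 second-instar larvae and held 5 days at high humidity. Mortality scored; LC50 from dosage-mortality curves, expressed as percent compound in solution, concentrations from 0.1% downward.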

[7] = test system: Tobacco Budworm [Heliothis virescens (Fabricius)] eggs; assay: Tobacco budworm egg test; settings: 2-day old eggs, percent in solution
In short: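 LC50 is given as percent compound in the dipping solution, fitted from dosage-mortality curves. Two-day-old eggs on paper towel were dipped in acetone solutions (top concentration 0.1%), kept at 78° F on rearing medium, and scored after control hatch and larval feeding.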

SMILES | LC50, HF [1] | LC50, CL [2] | LC50, LH [3] | LC50, BAW [4] | LC50, MW [5] | LC50, TBW, C (TBW-C) [6] | LC50, TBW, E (TBW-E) [7]
Clc1cccc(N=C(OCc2cccc(Oc3ccccc3)c2)C(Cl)Cl)c1 [Compound 1] | 4.8 µg | 0.005% | > 0.05% | 0.009% | > 0.01% | 0.06% | 0.05%
CC(Cl)(Cl)C(=Nc1ccc(Cl)cc1)OCc1cccc(Oc2ccccc2)c1 [Compound 3] | 50 µg | 0.012% | > 0.05% | 0.015% | > 0.01% | 0.009% | > 0.1%
CC(C)C(=Nc1ccc(Cl)c(Cl)c1)OCc1cccc(Oc2ccccc2)c1 [Compound 9] | 14 µg | 0.001% | 0.0003% | 0.0005% | > 0.01% | 0.0008% | 0.02%
Clc1ccc(N=C(OCc2cccc(Oc3ccccc3)c2)C(Cl)Cl)cc1 [Compound 29] | 5 µg | 0.002% | 0.003% | 0.003% | > 0.01% | 0.001% | 0.01%
ClCC(=Nc1ccc(Cl)cc1)OCc1cccc(Oc2ccccc2)c1 [Compound 31] | > 100 µg | 0.05% | > 0.05% | 0.08% | > 0.01% | 0.01% | > 0.1%
Clc1ccc(N=C(OCc2cccc(Oc3ccccc3)c2)C2CC2)cc1 [Compound 32] | 37 µg | 0.003% | > 0.05% | 0.03% | > 0.01% | 0.006% | 0.1%
CC(Cl)C(=Nc1ccc(Cl)cc1)OCc1cccc(Oc2ccccc2)c1 (stereo not drawn) [Compound 33] | 17 µg | 0.01% | > 0.05% | 0.02% | > 0.01% | 0.0025% | > 0.1%
CC(=Nc1ccccc1)OCc1cccc(Oc2ccccc2)c1 [Compound 42] | 45 µg | > 0.1% | > 0.05% | > 0.1% | > 0.01% | > 0.1% | > 0.1%
Fc1ccc(N=C(OCc2cccc(Oc3ccccc3)c2)C2CC2)cc1 [Compound 45] | 30 µg | 0.03% | > 0.05% | 0.1% | – | 0.01% | 0.08%
CC(C)C(=Nc1cccc(F)c1)OCc1cccc(Oc2ccccc2)c1 [Compound 47] | 10 µg | 0.002% | 0.0003% | 0.002% | – | 0.002% | 0.06%
CC(C)C(=Nc1ccc(F)cc1F)OCc1cccc(Oc2ccccc2)c1 [Compound 52] | 8 µg | 0.0025% | 0.001% | 0.01% | – | 0.004% | > 0.05%
CC(C)C(=Nc1ccc(F)c(F)c1)OCc1cccc(Oc2ccccc2)c1 [Compound 54] | 3.5 µg | 0.0003% | 0.00015% | 0.004% | – | 0.001% | 0.017%
FC(F)(F)c1ccc(N=C(OCc2cccc(Oc3ccccc3)c2)C(Cl)Cl)cc1 [Compound 61] | 29 µg | 0.001% | > 0.05% | 0.002% | > 0.01% | 0.03% | 0.03%
FC(F)(F)c1ccc(N=C(OCc2cccc(Oc3ccccc3)c2)C2CC2)cc1 [Compound 62] | 20 µg | 0.005% | > 0.05% | 0.02% | > 0.01% | 0.0015% | 0.025%
FC(F)(F)Oc1ccc(N=C(OCc2cccc(Oc3ccccc3)c2)C(Cl)Cl)cc1 [Compound 64] | 11 µg | 0.0025% | > 0.05% | 0.0025% | > 0.01% | 0.1% | 0.03%
FC(F)(F)c1ccc(N=C(OCc2cccc(Oc3ccccc3)c2)C2CC2)c(Cl)c1 [Compound 65] | > 100 µg | < 0.01% | > 0.05% | > 0.1% | – | 0.1% | > 0.1%
CC(C)C(=Nc1ccc(Cl)c(C(F)(F)F)c1)OCc1cccc(Oc2ccccc2)c1 [Compound 71] | 50 µg | 0.0006% | 0.002% | 0.0004% | – | 0.0008% | 0.065%
CC(C)C(=Nc1cc(F)cc(C(F)(F)F)c1)OCc1cccc(Oc2ccccc2)c1 [Compound 77] | 10 µg | 0.0005% | 0.0002% | 0.004% | > 0.01% | 0.0004% | 0.03%
CC(C)C(=Nc1cccc(C(F)(F)F)c1)OCc1ccc(F)c(Oc2ccccc2)c1 [Compound 80] | 4.5 µg | 0.0003% | 0.0001% | 0.0018% | – | 0.00075% | 0.005%
CC(C)C(=Nc1ccc(C(C)C)cc1)OCc1cccc(Oc2ccccc2)c1 [Compound 144] | 100 µg | 0.002% | 0.0006% | > 0.01% | > 0.01% | 0.006% | 0.05%
CC(C)C(=Nc1ccc2c(c1)OCO2)OCc1cccc(Oc2ccc(F)cc2)c1 [Compound 176] | 1.8 µg | 0.0005% | > 0.05% | 0.0035% | 0.009% | 0.002% | 0.05%
CC(C)C(=Nc1cccc(C(F)(F)F)c1)OCc1ccc(F)c(Oc2ccc(F)cc2)c1 [Compound 268] | 4 µg | 0.000025% | 0.0005% | 0.001% | > 0.01% | 0.0005% | 0.023%
CC(C)C(=Nc1cccc(Cl)c1)OCc1cccc(Oc2ccc(Cl)cc2)c1 [Compound 270] | 12 µg | 0.00025% | 0.003% | 0.005% | > 0.01% | > 0.0015% | > 0.01%
CC(C)C(=Nc1cccc(I)c1)OCc1ccc(F)c(Oc2ccc(F)cc2)c1 [Compound 279] | 4 µg | 0.00008% | 0.0003% | 0.0025% | > 0.01% | 0.007% | 0.016%
CC(C)C(=Nc1ccc2c(c1)OC(F)(F)O2)OCc1ccc(F)c(Oc2ccc(F)cc2)c1 [Compound 284] | 39 µg | 0.00005% | 0.0003% | 0.0025% | 0.0075% | 0.0002% | –
CC(C)C(=Nc1ccc(F)c(Cl)c1)OCc1ccc(F)c(Oc2ccc(F)c(F)c2)c1 [Compound 346] | 7.2 µg | > 0.1% | 0.05% | > 0.1% | > 0.01% | 0.0002% | > 0.1%
